Assay results from PubChem BioAssay (NCI).
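Each compound was tested at five concentrations against cells in 96-well plates for 48 hours. Here, GI50 denotes the concentration required for 50% inhibition of growth. TGI denotes the concentration required for complete inhibition of growth.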

Columns and labels:
Assay in all cases: NCI-60 cell line screen, 48 h
NCI-H522 lung = tested on: NCI-H522 lung
CAKI-1 renal = tested on: CAKI-1 renal
HCT-15 colon = tested on: HCT-15 colon
MCF7 breast = tested on: MCF7 breast
OVCAR-5 ovarian = tested on: OVCAR-5 ovarian
MALME-3M melanoma = tested on: MALME-3M melanoma
LOX IMVI melanoma = tested on: LOX IMVI melanoma
UACC-62 melanoma = tested on: UACC-62 melanoma
COLO 205 colon = tested on: COLO 205 colon
A498 renal = tested on: A498 renal
KM12 colon = tested on: KM12 colon
SK-OV-3 ovarian = tested on: SK-OV-3 ovarian
K-562 leukemia = tested on: K-562 leukemia
HT29 colon = tested on: HT29 colon
SK-MEL-2 melanoma = tested on: SK-MEL-2 melanoma
RPMI-8226 leukemia = tested on: RPMI-8226 leukemia
OVCAR-8 ovarian = tested on: OVCAR-8 ovarian
MOLT-4 leukemia = tested on: MOLT-4 leukemia
RXF 393 renal = tested on: RXF 393 renal
PC-3 prostate = tested on: PC-3 prostate
SNB-75 CNS = tested on: SNB-75 CNS
HOP-92 NSCLC = tested on: HOP-92 NSCLC
UO-31 renal = tested on: UO-31 renal
EKVX NSCLC = tested on: EKVX NSCLC
A549 NSCLC = tested on: A549 NSCLC
IGROV1 ovarian = tested on: IGROV1 ovarian
TK-10 renal = tested on: TK-10 renal
SK-MEL-28 melanoma = tested on: SK-MEL-28 melanoma
SNB-19 CNS = tested on: SNB-19 CNS
CCRF-CEM leukemia = tested on: CCRF-CEM leukemia
SN12C renal = tested on: SN12C renal
SK-MEL-5 melanoma = tested on: SK-MEL-5 melanoma
NCI/ADR-RES ovarian = tested on: NCI/ADR-RES ovarian
T-47D breast = tested on: T-47D breast
MDA-MB-231 breast = tested on: MDA-MB-231 breast
HCC-2998 colon = tested on: HCC-2998 colon
MDA-MB-435 = tested on: MDA-MB-435
SF-539 CNS = tested on: SF-539 CNS
SR leukemia = tested on: SR leukemia
DU-145 prostate = tested on: DU-145 prostate
SF-295 CNS = tested on: SF-295 CNS
NCI-H460 lung = tested on: NCI-H460 lung
HOP-62 NSCLC = tested on: HOP-62 NSCLC
U251 CNS = tested on: U251 CNS
HS 578T breast = tested on: HS 578T breast
BT-549 breast = tested on: BT-549 breast
OVCAR-3 ovarian = tested on: OVCAR-3 ovarian
NCI-H226 lung = tested on: NCI-H226 lung
SF-268 CNS = tested on: SF-268 CNS
SW-620 colon = tested on: SW-620 colon
NCI-H23 lung = tested on: NCI-H23 lung
HCT-116 colon = tested on: HCT-116 colon
UACC-257 melanoma = tested on: UACC-257 melanoma
OVCAR-4 ovarian = tested on: OVCAR-4 ovarian
ACHN renal = tested on: ACHN renal
HL-60(TB) leukemia = tested on: HL-60(TB) leukemia
M14 melanoma = tested on: M14 melanoma

Cn1cc(-c2nn3cc(-c4ccncc4)nc3s2)c2cc(Cl)ccc21 gave a GI50 (NCI-H522 lung) of 2.56 µM, a TGI (NCI-H522 lung) of 10.2 µM and a GI50 (CAKI-1 renal) of 8.31 µM. It also gave a TGI (CAKI-1 renal) of 28.6 µM, a GI50 (HCT-15 colon) of 1.83 µM and a TGI (HCT-15 colon) of 3.78 µM. The GI50 (MCF7 breast) was 1.23 µM, the TGI (MCF7 breast) was 3.34 µM and the GI50 (OVCAR-5 ovarian) was 1.86 µM. For the same compound, the TGI (OVCAR-5 ovarian) was 3.85 µM, the GI50 (MALME-3M melanoma) was 3.16 µM and the TGI (MALME-3M melanoma) was 18.3 µM. The GI50 (LOX IMVI melanoma) was 2.64 µM, the TGI (LOX IMVI melanoma) was 9.26 µM and the GI50 (UACC-62 melanoma) was 11.4 µM. For the same compound, the TGI (UACC-62 melanoma) was 31.7 µM, the GI50 (COLO 205 colon) was 3.39 µM and the TGI (COLO 205 colon) was 9.2 µM. The GI50 (A498 renal) was 9.38 µM, the TGI (A498 renal) was 23.7 µM and the GI50 (KM12 colon) was 12.5 µM. For the same compound, the TGI (KM12 colon) was 37.5 µM, the GI50 (SK-OV-3 ovarian) was 12.3 µM and the TGI (SK-OV-3 ovarian) was 30.6 µM. It also gave a GI50 (K-562 leukemia) of 2.15 µM, a TGI (K-562 leukemia) of 5.3 µM and a GI50 (HT29 colon) of 2.41 µM. The TGI (HT29 colon) was 7.31 µM, the GI50 (SK-MEL-2 melanoma) was 5.41 µM and the TGI (SK-MEL-2 melanoma) was 14 µM. The GI50 (RPMI-8226 leukemia) was 2.24 µM, the TGI (RPMI-8226 leukemia) was 6.24 µM and the GI50 (OVCAR-8 ovarian) was 2.36 µM. For the same compound, the TGI (OVCAR-8 ovarian) was 7.7 µM, the GI50 (MOLT-4 leukemia) was 2.1 µM and the TGI (MOLT-4 leukemia) was 5.23 µM. The GI50 (RXF 393 renal) was 3.37 µM, the TGI (RXF 393 renal) was 9.85 µM and the GI50 (PC-3 prostate) was 2.48 µM. The TGI (PC-3 prostate) was 7.82 µM, the GI50 (SNB-75 CNS) was 6.42 µM and the TGI (SNB-75 CNS) was 24.2 µM. The GI50 (HOP-92 NSCLC) was 1.61 µM, the TGI (HOP-92 NSCLC) was 5.3 µM and the GI50 (UO-31 renal) was 4.03 µM. It also gave a TGI (UO-31 renal) of 22.6 µM, a GI50 (EKVX NSCLC) of 2.3 µM and a TGI (EKVX NSCLC) of 8.54 µM. The GI50 (A549 NSCLC) was 11.2 µM, the TGI (A549 NSCLC) was 51.7 µM and the GI50 (IGROV1 ovarian) was 2.12 µM. The TGI (IGROV1 ovarian) was 17.2 µM, the GI50 (TK-10 renal) was 14.4 µM and the TGI (TK-10 renal) was 30.9 µM. For the same compound, the GI50 (SK-MEL-28 melanoma) was 2 µM, the TGI (SK-MEL-28 melanoma) was 3.77 µM and the GI50 (SNB-19 CNS) was 7.98 µM. The TGI (SNB-19 CNS) was 32.7 µM, the GI50 (CCRF-CEM leukemia) was 2.06 µM and the TGI (CCRF-CEM leukemia) was 5.4 µM. It also gave a GI50 (SN12C renal) of 3.72 µM, a TGI (SN12C renal) of 11.2 µM and a GI50 (SK-MEL-5 melanoma) of 3.02 µM. It also gave a TGI (SK-MEL-5 melanoma) of 8.25 µM, a GI50 (NCI/ADR-RES ovarian) of 2.7 µM and a TGI (NCI/ADR-RES ovarian) of 8.21 µM. The GI50 (T-47D breast) was 3.3 µM, the TGI (T-47D breast) was 18.6 µM and the GI50 (MDA-MB-231 breast) was 1.58 µM. The TGI (MDA-MB-231 breast) was 3.24 µM, the GI50 (HCC-2998 colon) was 3.64 µM and the TGI (HCC-2998 colon) was 10.1 µM. The GI50 (MDA-MB-435) was 2.84 µM, the TGI (MDA-MB-435) was 8.7 µM and the GI50 (SF-539 CNS) was 4.67 µM. The TGI (SF-539 CNS) was 10.2 µM, the GI50 (SR leukemia) was 1.69 µM and the TGI (SR leukemia) was 4.61 µM. It also gave a GI50 (DU-145 prostate) of 6.23 µM, a TGI (DU-145 prostate) of 17.4 µM and a GI50 (SF-295 CNS) of 2.98 µM. The TGI (SF-295 CNS) was 8.52 µM, the GI50 (NCI-H460 lung) was 4.6 µM and the TGI (NCI-H460 lung) was 17.5 µM. For the same compound, the GI50 (HOP-62 NSCLC) was 4.4 µM, the TGI (HOP-62 NSCLC) was greater than 27.8 µM and the GI50 (U251 CNS) was 9.15 µM. The TGI (U251 CNS) was 45.4 µM, the GI50 (HS 578T breast) was 4.73 µM and the TGI (HS 578T breast) was 27.2 µM. It also gave a GI50 (BT-549 breast) of 3.39 µM, a TGI (BT-549 breast) of 13.3 µM and a GI50 (OVCAR-3 ovarian) of 5.8 µM. The TGI (OVCAR-3 ovarian) was 27.1 µM, the GI50 (NCI-H226 lung) was 4.86 µM and the TGI (NCI-H226 lung) was 26.1 µM. It also gave a GI50 (SF-268 CNS) of 6.32 µM, a TGI (SF-268 CNS) of 24.4 µM and a GI50 (SW-620 colon) of 1.89 µM. The TGI (SW-620 colon) was 4.27 µM, the GI50 (NCI-H23 lung) was 5.38 µM and the TGI (NCI-H23 lung) was 25.4 µM. For the same compound, the GI50 (HCT-116 colon) was 1.76 µM, the TGI (HCT-116 colon) was 3.3 µM and the GI50 (UACC-257 melanoma) was 8.58 µM. It also gave a TGI (UACC-257 melanoma) of 25.2 µM, a GI50 (OVCAR-4 ovarian) of 5.03 µM and a TGI (OVCAR-4 ovarian) of 13.6 µM. It also gave a GI50 (ACHN renal) of 4.78 µM, a TGI (ACHN renal) of 25.3 µM and a GI50 (HL-60(TB) leukemia) of 1.54 µM. The TGI (HL-60(TB) leukemia) was 3.26 µM, the GI50 (M14 melanoma) was 1.6 µM and the TGI (M14 melanoma) was 3.14 µM.
